Experimental data reported in patent publication US9403774B2, “Guanidine and amine substituted tetrahydroisoquinoline compounds as factor xia inhibitors” (BRISTOL-MYERS SQUIBB COMPANY, priority 2012, dated 2016).
pKi: −log10 of the molar value. Structures can show the parent of a compound that is named as a salt.

Target: purified human Factor XIa (Homo sapiens (Human), UniProt P03951)
Assay: Factor XIa assay (chromogenic substrate S-2366 hydrolysis)
Type: biochemical
Conditions: substrate S-2366, pH 7.4
Protocol: The effectiveness of compounds of the present invention as inhibitors of the coagulation factors XIa, VIIa, IXa, Xa, XIIa, plasma kallikrein or thrombin, can be determined using a relevant purified serine protease, respectively, and an appropriate synthetic substrate. The rate of hydrolysis of the chromogenic or fluorogenic substrate by the relevant serine protease was measured both in the absence and presence of compounds of the present invention. […] A decrease in the rate of absorbance or fluorescence change in the presence of inhibitor is indicative of enzyme inhibition. Such methods are known to one skilled in the art. The results of this assay are expressed as the inhibitory constant, Ki.
Factor XIa determinations were made in 50 mM HEPES buffer at pH 7.4 containing 145 mM NaCl, 5 mM KCl, and 0.1% PEG 8000 (polyethylene glycol; JT Baker or Fisher Scientific). Determinations were made using purified human Factor XIa at a final concentration of 75-200 pM (Haematologic Technologies) and the synthetic substrate S-2366 (pyroGlu-Pro-Arg-pNA; CHROMOGENIX® or AnaSpec) at a concentration of 0.0002-0.001 M.
The Michaelis constant, Km, for substrate hydrolysis by each protease, was determined at 25° C. using the method of Lineweaver and Burk. Values of Ki were determined by allowing the protease to react with the substrate in the presence of the inhibitor. Reactions were allowed to go for periods of 20-180 minutes (depending on the protease) and the velocities (rate of absorbance or fluorescence change versus time) were measured. The following relationships were used to calculate Ki values: (vo−vs)/vs=I/(Ki(1+S/Km)) for a competitive inhibitor with one binding site; or vs/vo=A+((B−A)/1+((IC50/(I)n))); and Ki═IC50/(1+S/Km) for a competitive inhibitor where: […]

purified human Factor XIa, sequence (P03951 388-625): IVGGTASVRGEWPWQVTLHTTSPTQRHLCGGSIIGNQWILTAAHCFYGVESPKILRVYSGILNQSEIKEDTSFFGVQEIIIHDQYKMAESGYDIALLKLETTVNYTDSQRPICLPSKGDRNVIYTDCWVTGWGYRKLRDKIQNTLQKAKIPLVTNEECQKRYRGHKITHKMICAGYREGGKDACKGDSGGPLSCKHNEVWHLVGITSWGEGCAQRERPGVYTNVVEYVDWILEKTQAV
purified human Factor XIa, sequence (P03951 19-387 partner): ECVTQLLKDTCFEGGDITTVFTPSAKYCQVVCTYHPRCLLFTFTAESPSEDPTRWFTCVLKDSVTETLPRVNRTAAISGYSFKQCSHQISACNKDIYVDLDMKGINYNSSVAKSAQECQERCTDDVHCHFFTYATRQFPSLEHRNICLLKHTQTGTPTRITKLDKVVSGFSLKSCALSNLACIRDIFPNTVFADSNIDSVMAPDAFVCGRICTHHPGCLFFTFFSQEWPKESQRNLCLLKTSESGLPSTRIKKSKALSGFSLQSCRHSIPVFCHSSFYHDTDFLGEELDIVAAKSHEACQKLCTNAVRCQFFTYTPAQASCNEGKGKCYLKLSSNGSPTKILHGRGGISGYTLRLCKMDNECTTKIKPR

| SMILES | pKi |
| --- | --- |
| CC1(C)Cc2c(-c3ccc4c(c3)OCO4)cccc2C(C(=O)Nc2ccc(C(=O)O)cc2)N1C(=O)[C@H]1CC[C@H](CN)CC1 (stereo partly drawn) [Example 16] | 6.78 |
| CNC(=O)c1ccc(-c2cccc3c2CCN(C(=O)[C@H]2CC[C@H](CN)CC2)C3C(=O)Nc2ccc(C(=O)O)cc2)cc1 (stereo partly drawn) [Example 4, 4-(2-((1r,4r)-4-(aminomethyl)cyclohexanecarbonyl)-5-(4-(methylcarbamoyl)phenyl)-1,2,3,4-tetrahydroisoquinoline-1-carboxamido)benzoic acid, TFA Salt] | > 8.30 |
| COC1CCN(c2cccc3c2CCN(C(=O)c2ccc(N)cc2)C3C(=O)Nc2ccc(C(=O)O)cc2)CC1 (stereo not drawn) [Example 1, 4-(2-(4-aminobenzoyl)-5-(4-methoxypiperidin-1-yl)-1,2,3,4-tetrahydroisoquinoline-1-carboxamido)benzoic acid, bis-TFA salt] | 6.27 |
| CC1(C)Cc2c(-c3cc4ccccc4s3)cccc2C(C(=O)Nc2ccc(C(=O)O)cc2)N1C(=O)[C@H]1CC[C@H](CN)CC1 (stereo partly drawn) [Example 20] | 6.11 |

Other lines, results leading:

| pKi | SMILES |
| --- | --- |
| 7.32 | CC1(C)Cc2c(-c3ccc4ncccc4c3)cccc2C(C(=O)Nc2ccc(C(=O)O)cc2)N1C(=O)[C@H]1CC[C@H](CN)CC1 (stereo partly drawn) [Example 26] |
| 7.07 | NC[C@H]1CC[C@H](C(=O)N2CCc3ccccc3[C@H]2C(=O)Nc2ccc(C(=O)O)cc2)CC1 [Example 32, 4-((S)-2-((1r,4S)-4-(aminomethyl)cyclohexanecarbonyl)-1,2,3,4-tetrahydroisoquinoline-1-carboxamido)benzoic acid, TFA salt] |
